How the values were obtained:
[1] = test system: escape deficit (antidepressive effect); test: escape deficit development test; assay type: in vivo; conditions: rats, 2 week pre-treatment, escapes out of 30 stimuli
Description: In the escape deficit development test, rats are restrained and subjected to mild, short, unavoidable electric shocks for 50 minutes. This is known as the pre-test. 24 hours later, the rats are tested for their ability to avoid the same stimuli on their tails, in a situation where […]. A rat on the average makes 26 escapes out of 30 stimuli (naive controls), whereas a rat subjected to pre-test only makes 1 to 3 escapes (ED controls). […] The compounds of the invention, when administered to rats one hour before their exposure to the unavoidable stress, cause an increase in reactivity to the escape test. This increase in reactivity is enhanced when pre-treatment is effected for 1 to 2 weeks.

[2] = after only a few weeks; WO 97/13489; cited from earlier work

CC(=O)OC1=C(CC=C(C)C)C(=O)[C@]2(C(=O)C(C)C)C(=O)[C@]1(CC=C(C)C)C[C@H](CC=C(C)C)[C@@]2(C)CCC=C(C)C [Hyperforin acetate]
Number of Escapes ([1]; 6.25 mg/Kg): 12.6 ± 2.8
Number of Escapes ([1]; 12.5 mg/Kg): 17.3 ± 1.9
Number of Escapes ([1]; 25.0 mg/Kg): 21.2 ± 1.3

CC(C)=CCC[C@]1(C)[C@@H](CC=C(C)C)C[C@@]2(CC=C(C)C)C(=O)[C@]1(C(=O)C(C)C)C(=O)C(CC=C(C)C)=C2O [hyperforin]
hyperforin content of a water-alcohol extract of St. Johns wort [2]: falls almost to zero

Source: patent US6656510B2, “Hyperforin derivatives, use thereof and formulations containing them” (Indena S.p.A., priority 1998, dated 2003)
